Measured values as given in ChEMBL document CHEMBL3044789, “Comparing weed and crop seedling response to pre-emergence pendimethalin application in Corchorus olitorius and Abelmoschus esculentus” (Crop Prot, 2006).

What was measured:
Ageratum conyzoides [1] = experiment: Herbicidal activity against Ageratum conyzoides in Abelmoschus esculentus plots assessed as minor weed growth at 1.32 kg a.i/ha after 2 weeks; format: functional
Chromolaena odorata [2] = experiment: Herbicidal activity against Chromolaena odorata in Corchorus olitorius plots assessed as weed cover at 0.99 kg a.i/ha after 7 weeks (reference value: 1.7 +/- 0.56 %); format: functional
Commelina diffusa [3] = experiment: Herbicidal activity against Commelina diffusa in Corchorus olitorius plots assessed as weed cover at 0.66 kg a.i/ha after 7 weeks (reference value: 1.7 +/- 0.56 %); format: functional
Cyperus rotundus = experiment: Herbicidal activity against Cyperus rotundus in Corchorus olitorius plots assessed as weed recovery at 0.66 kg a.i/ha after 2 weeks (reference value: 78.3 +/- 0.74 %); format: functional
Chromolaena odorata [4] = experiment: Herbicidal activity against Chromolaena odorata in Corchorus olitorius plots assessed as weed cover at 0.99 kg a.i/ha after 4 weeks (reference value: 20.1+/- 0.57 %); format: functional
Asteraceae [5] = experiment: Herbicidal activity against Aspilia africana in Corchorus olitorius plots assessed as weed recovery at 0.66 kg a.i/ha after 2 weeks (reference value: 78.3 +/- 0.74 %); format: functional
Calopogonium mucunoides [6] = experiment: Herbicidal activity against Calopogonium mucunoides in Corchorus olitorius plots assessed as weed cover at 1.32 kg a.i/ha after 7 weeks (reference value: 1.7 +/- 0.56 %); format: functional
Synedrella nodiflora [7] = experiment: Herbicidal activity against Synedrella nodiflora in Corchorus olitorius plots assessed as weed cover at 0.33 kg a.i/ha after 2 weeks (reference value: 81.7 +/- 0.43 %); format: functional
Mimosa pudica = experiment: Herbicidal activity against Mimosa pudica in Abelmoschus esculentus plots assessed as weed cover at 0.33 kg a.i/ha after 2 weeks (reference value: 63.5 +/- 0.29 %); format: functional
Euphorbia heterophylla [8] = experiment: Herbicidal activity against Euphorbia heterophylla in Abelmoschus esculentus plots assessed as weed cover at 1.32 kg a.i/ha after 7 weeks (reference value: 14.7 +/- 0.46 %); format: functional
Calopogonium mucunoides [9] = experiment: Herbicidal activity against Calopogonium mucunoides in Abelmoschus esculentus plots assessed as weed cover at 0.33 kg a.i/ha after 7 weeks (reference value: 14.7 +/- 0.46 %); format: functional
Corchorus olitorius [10] = experiment: Phytotoxicity in Corchorus olitorius assessed as seedling injury at 0.99 kg a.i/ha applied as solution after 7 weeks relative to control; format: organism-based; conditions: in vivo, other, 1176 h
Commelina diffusa [11] = experiment: Herbicidal activity against Commelina diffusa in Corchorus olitorius plots assessed as weed cover at 0.66 kg a.i/ha after 2 weeks (reference value: 81.7 +/- 0.43 %); format: functional
Calopogonium mucunoides [12] = experiment: Herbicidal activity against Calopogonium mucunoides in Abelmoschus esculentus plots assessed as weed recovery at 0.33 kg a.i/ha after 2 weeks (reference value: 60.1 +/- 0.46 %); format: functional
Calopogonium mucunoides [13] = experiment: Herbicidal activity against Calopogonium mucunoides in Corchorus olitorius plots assessed as major weed growth at 1.32 kg a.i/ha after 2 weeks; format: functional
Synedrella nodiflora [14] = experiment: Herbicidal activity against Synedrella nodiflora in Corchorus olitorius plots assessed as weed recovery at 0.99 kg a.i/ha after 2 weeks (reference value: 78.3 +/- 0.74 %); format: functional
Calopogonium mucunoides [15] = experiment: Herbicidal activity against Calopogonium mucunoides in Abelmoschus esculentus plots assessed as major weed growth at 1.32 kg a.i/ha after 2 weeks; format: functional
Abelmoschus esculentus [16] = experiment: Phytotoxicity in Abelmoschus esculentus assessed as root length at 0.66 kg a.i/ha applied as solution after 7 weeks (reference value: 23 +/- 0.34 mm); format: organism-based; conditions: in vivo, other, 1176 h
Abelmoschus esculentus [17] = experiment: Phytotoxicity in Abelmoschus esculentus assessed as root length at 0.99 kg a.i/ha applied as solution after 7 weeks (reference value: 23 +/- 0.34 mm); format: organism-based; conditions: in vivo, other, 1176 h
Abelmoschus esculentus [18] = experiment: Phytotoxicity in Abelmoschus esculentus assessed as seedling emergence at 0.99 kg a.i/ha treated to soil after 7 weeks (reference value: 95 +/- 0.05 %); format: organism-based; conditions: in vivo, other, 1176 h
Commelina diffusa [19] = experiment: Herbicidal activity against Commelina diffusa in Corchorus olitorius plots assessed as weed recovery at 0.66 kg a.i/ha after 2 weeks (reference value: 78.3 +/- 0.74 %); format: functional
Talinum fruticosum = experiment: Herbicidal activity against Talinum fruticosum in Corchorus olitorius plots assessed as weed recovery at 0.99 kg a.i/ha after 2 weeks (reference value: 78.3 +/- 0.74 %); format: functional
Euphorbia heterophylla [20] = experiment: Herbicidal activity against Euphorbia heterophylla in Corchorus olitorius plots assessed as major weed growth at 0.66 kg a.i/ha after 2 weeks; format: functional
Euphorbia heterophylla [21] = experiment: Herbicidal activity against Euphorbia heterophylla in Corchorus olitorius plots assessed as major weed growth at 0.33 kg a.i/ha after 2 weeks; format: functional
Calopogonium mucunoides [22] = experiment: Herbicidal activity against Calopogonium mucunoides in Corchorus olitorius plots assessed as major weed growth at 0.99 kg a.i/ha after 2 weeks; format: functional
Euphorbia heterophylla [23] = experiment: Herbicidal activity against Euphorbia heterophylla in Corchorus olitorius plots assessed as weed cover at 1.32 kg a.i/ha after 4 weeks (reference value: 20.1+/- 0.57 %); format: functional
Euphorbia heterophylla [24] = experiment: Herbicidal activity against Euphorbia heterophylla in Corchorus olitorius plots assessed as weed cover at 0.33 kg a.i/ha after 2 weeks (reference value: 81.7 +/- 0.43 %); format: functional
Asteraceae [25] = experiment: Herbicidal activity against Aspilia africana in Corchorus olitorius plots assessed as weed cover at 0.66 kg a.i/ha after 2 weeks (reference value: 81.7 +/- 0.43 %); format: functional
Corchorus olitorius [26] = experiment: Phytotoxicity in Corchorus olitorius assessed as root length at 0.66 kg a.i/ha applied as solution after 7 weeks (reference value: 14.3 +/- 1.06 mm); format: organism-based; conditions: in vivo, other, 1176 h
Abelmoschus esculentus [27] = experiment: Phytotoxicity in Abelmoschus esculentus assessed as seed germination at 0.66 kg a.i/ha applied as solution after 7 weeks (reference value: 85.7 +/- 0.36 %); format: organism-based; conditions: in vivo, other, 1176 h
Euphorbia heterophylla [28] = experiment: Herbicidal activity against Euphorbia heterophylla in Corchorus olitorius plots assessed as weed cover at 0.66 kg a.i/ha after 7 weeks (reference value: 1.7 +/- 0.56 %); format: functional
Ageratum conyzoides [29] = experiment: Herbicidal activity against Ageratum conyzoides in Abelmoschus esculentus plots assessed as weed cover at 1.32 kg a.i/ha after 4 weeks (reference value: 22.6 +/- 0.49 %); format: functional
[30] = system: Rottboellia cochinchinensis; experiment: Herbicidal activity against Rottboellia cochinchinensis in Corchorus olitorius plots assessed as weed cover at 0.33 kg a.i/ha after 7 weeks (reference value: 1.7 +/- 0.56 %); format: functional
Chromolaena odorata [31] = experiment: Herbicidal activity against Chromolaena odorata in Corchorus olitorius plots assessed as weed cover at 1.32 kg a.i/ha after 4 weeks (reference value: 20.1+/- 0.57 %); format: functional
Synedrella nodiflora [32] = experiment: Herbicidal activity against Synedrella nodiflora in Corchorus olitorius plots assessed as weed cover at 1.32 kg a.i/ha after 7 weeks (reference value: 1.7 +/- 0.56 %); format: functional
Corchorus olitorius [33] = experiment: Phytotoxicity in Corchorus olitorius assessed as seed germination at 1.32 kg a.i/ha applied as solution after 7 weeks relative to untreated control; format: organism-based; conditions: in vivo, other, 1176 h
Corchorus olitorius [34] = experiment: Phytotoxicity in Corchorus olitorius assessed as seedling injury at 1.32 kg a.i/ha applied as solution after 7 weeks relative to control; format: organism-based; conditions: in vivo, other, 1176 h

## CCC(CC)Nc1c([N+](=O)[O-])cc(C)c(C)c1[N+](=O)[O-] [PENDIMETHALIN]
Ageratum conyzoides [1]
  Activity: 1 /m2
Chromolaena odorata [2]
  Activity: 95%
Commelina diffusa [3]
  Activity: 100%
Cyperus rotundus
  Activity: 33.3%
Chromolaena odorata [4]
  Activity: 48.3%
Asteraceae [5]
  Activity: 33.3%
Calopogonium mucunoides [6]
  Activity: 95%
Synedrella nodiflora [7]
  Activity: 63.3%
Mimosa pudica
  Activity: 56.8%
Euphorbia heterophylla [8]
  Activity: 82.4%
Calopogonium mucunoides [9]
  Activity: 90%
Corchorus olitorius [10]
  Activity: 46.7%
Commelina diffusa [11]
  Activity: 51.7%
Calopogonium mucunoides [12]
  Activity: 39.2%
Calopogonium mucunoides [13]
  Activity: 31 /m2
Synedrella nodiflora [14]
  Activity: 21.7%
Calopogonium mucunoides [15]
  Activity: 31 /m2
Abelmoschus esculentus [16]
  Activity: 11.8 mm
Abelmoschus esculentus [17]
  Activity: 11.8 mm
Abelmoschus esculentus [18]
  Activity: 85%
Commelina diffusa [19]
  Activity: 33.3%
Talinum fruticosum
  Activity: 21.7%
Euphorbia heterophylla [20]
  Activity: 31 /m2
Euphorbia heterophylla [21]
  Activity: 31 /m2
Calopogonium mucunoides [22]
  Activity: 31 /m2
Euphorbia heterophylla [23]
  Activity: 33.3%
Euphorbia heterophylla [24]
  Activity: 63.3%
Asteraceae [25]
  Activity: 51.7%
Corchorus olitorius [26]
  Activity: 2.6 mm
Abelmoschus esculentus [27]
  Activity: 46%
Euphorbia heterophylla [28]
  Activity: 100%
Ageratum conyzoides [29]
  Activity: 36.2%
[30]
  Activity: 100%
Chromolaena odorata [31]
  Activity: 33.3%
Synedrella nodiflora [32]
  Activity: 95%
Corchorus olitorius [33]
  Activity: 68.3%
Corchorus olitorius [34]
  Activity: 66.7%
